From ChEMBL document CHEMBL1134186, “Protein phosphatase 1 catalyses the direct hydrolytic cleavage of phosphate monoester in a ternary complex mechanism” (Bioorg Med Chem Lett, 2001)
Where a SMILES comes first, the peptide text is derived from it.

Experiments:
[1] = Compound was evaluated for the Ki value for peptide alcohol for competitive inhibition in the presence of Mn2+ ions at pH 7.5; type: ADME
protein phosphatase = experiment: Compound was evaluated for the Michaelis-Menten constant, Km in a generic protein phosphatase stopped assay system; type: ADME

Row | Compound | Ki [1] [µM] | Km (protein phosphatase) [mM]
1 | CC(=O)N[C@@H](CCCN=C(N)N)C(=O)N[C@@H](CCCN=C(N)N)C(=O)N[C@@H](C)C(=O)N[C@H](C(=O)N[C@H](C(=O)N[C@@H](C)C(=O)O)C(C)C)[C@@H](C)OP(=O)(O)O (HELM PEPTIDE1{[ac].R.R.A.[C[C@@H](OP(=O)(O)O)[C@H](N[*:1])C(=O)[*:2]].V.A}$$$$V2.0) | 1600 | 3.7
2 | H-RRATVA-OH | > 30000 | –
